Assay results from PubChem BioAssay (NCI).
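96-well plates; 48 h exposure; 5 concentrations. Endpoints by linear interpolation between flanking doses. Not reached: highest tested concentration assigned. GI50 is the concentration that inhibits growth by half. TGI denotes the concentration required for complete inhibition of growth.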

How the values were obtained:
Experiment in all cases: NCI anticancer screen, dose series, 48 h
786-0 renal = test system: 786-0 renal
A498 renal = test system: A498 renal
A549 NSCLC = test system: A549 NSCLC
ACHN renal = test system: ACHN renal
BT-549 breast = test system: BT-549 breast
CAKI-1 renal = test system: CAKI-1 renal
CCRF-CEM leukemia = test system: CCRF-CEM leukemia
COLO 205 colon = test system: COLO 205 colon
DU-145 prostate = test system: DU-145 prostate
EKVX NSCLC = test system: EKVX NSCLC
HCC-2998 colon = test system: HCC-2998 colon
HCT-116 colon = test system: HCT-116 colon
HCT-15 colon = test system: HCT-15 colon
HL-60(TB) leukemia = test system: HL-60(TB) leukemia
HOP-62 NSCLC = test system: HOP-62 NSCLC
HOP-92 NSCLC = test system: HOP-92 NSCLC
HS 578T breast = test system: HS 578T breast
HT29 colon = test system: HT29 colon
IGROV1 ovarian = test system: IGROV1 ovarian
K-562 leukemia = test system: K-562 leukemia
KM12 colon = test system: KM12 colon
LOX IMVI melanoma = test system: LOX IMVI melanoma
M14 melanoma = test system: M14 melanoma
MALME-3M melanoma = test system: MALME-3M melanoma
MCF7 breast = test system: MCF7 breast
MDA-MB-231 breast = test system: MDA-MB-231 breast
MDA-MB-435 = test system: MDA-MB-435
MOLT-4 leukemia = test system: MOLT-4 leukemia
NCI-H226 lung = test system: NCI-H226 lung
NCI-H23 lung = test system: NCI-H23 lung
NCI-H460 lung = test system: NCI-H460 lung
NCI/ADR-RES ovarian = test system: NCI/ADR-RES ovarian
OVCAR-3 ovarian = test system: OVCAR-3 ovarian
OVCAR-4 ovarian = test system: OVCAR-4 ovarian
OVCAR-5 ovarian = test system: OVCAR-5 ovarian
OVCAR-8 ovarian = test system: OVCAR-8 ovarian
PC-3 prostate = test system: PC-3 prostate
RPMI-8226 leukemia = test system: RPMI-8226 leukemia
RXF 393 renal = test system: RXF 393 renal
SF-268 CNS = test system: SF-268 CNS
SF-295 CNS = test system: SF-295 CNS
SF-539 CNS = test system: SF-539 CNS
SK-MEL-2 melanoma = test system: SK-MEL-2 melanoma
SK-MEL-28 melanoma = test system: SK-MEL-28 melanoma
SK-MEL-5 melanoma = test system: SK-MEL-5 melanoma
SK-OV-3 ovarian = test system: SK-OV-3 ovarian
SN12C renal = test system: SN12C renal
SNB-19 CNS = test system: SNB-19 CNS
SNB-75 CNS = test system: SNB-75 CNS
SR leukemia = test system: SR leukemia
SW-620 colon = test system: SW-620 colon
T-47D breast = test system: T-47D breast
TK-10 renal = test system: TK-10 renal
U251 CNS = test system: U251 CNS
UACC-257 melanoma = test system: UACC-257 melanoma
UACC-62 melanoma = test system: UACC-62 melanoma
UO-31 renal = test system: UO-31 renal

With `O=C(Nc1cc(Cl)cc(Cl)c1)Nc1nc2ccc([N+](=O)[O-])cc2s1` as the compound, how does the GI50 (786-0 renal) read?
Its GI50 is 1.47 µM.

And the TGI (786-0 renal)?
The TGI was 5.86 µM.

And the GI50 (A498 renal)?
The GI50 was 0.287 µM.

What about the TGI (A498 renal) of the same compound?
The TGI was 1.04 µM.

And the GI50 (A549 NSCLC)?
Its GI50 is 1.7 µM.

And the TGI (A549 NSCLC)?
Its TGI is over 100 µM.

What about the GI50 (ACHN renal) of the same compound?
The GI50 was 1.37 µM.

And the TGI (ACHN renal)?
The TGI was 21.8 µM.

And the GI50 (BT-549 breast)?
The GI50 was 1.68 µM.

And the TGI (BT-549 breast)?
Its TGI is 4.66 µM.

What about the GI50 (CAKI-1 renal) of the same compound?
The GI50 was 0.992 µM.

What about the TGI (CAKI-1 renal) of the same compound?
Its TGI is 8.47 µM.

And the GI50 (CCRF-CEM leukemia)?
The GI50 was 0.429 µM.

What about the TGI (CCRF-CEM leukemia) of the same compound?
Its TGI is 3.88 µM.

And the GI50 (COLO 205 colon)?
The GI50 was 0.646 µM.

And the TGI (COLO 205 colon)?
Its TGI is 2.21 µM.

What about the GI50 (DU-145 prostate) of the same compound?
The GI50 was 1.72 µM.

And the TGI (DU-145 prostate)?
The TGI was over 100 µM.

What about the GI50 (EKVX NSCLC) of the same compound?
Its GI50 is 1.14 µM.

What about the TGI (EKVX NSCLC) of the same compound?
Its TGI is 7.63 µM.

What about the GI50 (HCC-2998 colon) of the same compound?
The GI50 was 0.503 µM.

What about the TGI (HCC-2998 colon) of the same compound?
Its TGI is 4.07 µM.

And the GI50 (HCT-116 colon)?
Its GI50 is 0.57 µM.

What about the TGI (HCT-116 colon) of the same compound?
Its TGI is 4.76 µM.

What about the GI50 (HCT-15 colon) of the same compound?
Its GI50 is 0.769 µM.

What about the TGI (HCT-15 colon) of the same compound?
The TGI was over 100 µM.

And the GI50 (HL-60(TB) leukemia)?
Its GI50 is 0.714 µM.

What about the TGI (HL-60(TB) leukemia) of the same compound?
The TGI was 2.86 µM.

And the GI50 (HOP-62 NSCLC)?
The GI50 was 1.78 µM.

And the TGI (HOP-62 NSCLC)?
The TGI was 5.5 µM.

And the GI50 (HOP-92 NSCLC)?
The GI50 was 0.212 µM.

And the TGI (HOP-92 NSCLC)?
Its TGI is 0.67 µM.

And the GI50 (HS 578T breast)?
Its GI50 is 0.999 µM.

What about the TGI (HS 578T breast) of the same compound?
The TGI was 4.72 µM.

And the GI50 (HT29 colon)?
The GI50 was 1.61 µM.

What about the TGI (HT29 colon) of the same compound?
The TGI was over 100 µM.

And the GI50 (IGROV1 ovarian)?
The GI50 was 1.77 µM.

And the TGI (IGROV1 ovarian)?
Its TGI is 84.5 µM.

What about the GI50 (K-562 leukemia) of the same compound?
Its GI50 is 0.504 µM.

And the TGI (K-562 leukemia)?
Its TGI is over 24.3 µM.

What about the GI50 (KM12 colon) of the same compound?
The GI50 was 1.16 µM.

And the TGI (KM12 colon)?
The TGI was 7.33 µM.

What about the GI50 (LOX IMVI melanoma) of the same compound?
The GI50 was 0.839 µM.

And the TGI (LOX IMVI melanoma)?
The TGI was 2.44 µM.

And the GI50 (M14 melanoma)?
The GI50 was 1.88 µM.

And the TGI (M14 melanoma)?
Its TGI is 5.79 µM.

And the GI50 (MALME-3M melanoma)?
Its GI50 is 0.518 µM.

And the TGI (MALME-3M melanoma)?
The TGI was 5.72 µM.

And the GI50 (MCF7 breast)?
Its GI50 is 0.717 µM.

And the TGI (MCF7 breast)?
Its TGI is over 100 µM.

What about the GI50 (MDA-MB-231 breast) of the same compound?
Its GI50 is 1.19 µM.

What about the TGI (MDA-MB-231 breast) of the same compound?
Its TGI is 4.12 µM.

And the GI50 (MDA-MB-435)?
The GI50 was 1.51 µM.

And the TGI (MDA-MB-435)?
Its TGI is 6.77 µM.

And the GI50 (MOLT-4 leukemia)?
The GI50 was 0.685 µM.

What about the TGI (MOLT-4 leukemia) of the same compound?
Its TGI is 3.23 µM.

And the GI50 (NCI-H226 lung)?
The GI50 was 1.04 µM.

What about the TGI (NCI-H226 lung) of the same compound?
Its TGI is 3.15 µM.

And the GI50 (NCI-H23 lung)?
Its GI50 is 0.378 µM.

What about the TGI (NCI-H23 lung) of the same compound?
The TGI was 2.31 µM.

And the GI50 (NCI-H460 lung)?
The GI50 was 1.48 µM.

What about the TGI (NCI-H460 lung) of the same compound?
The TGI was over 100 µM.

What about the GI50 (NCI/ADR-RES ovarian) of the same compound?
Its GI50 is 0.8 µM.

What about the TGI (NCI/ADR-RES ovarian) of the same compound?
The TGI was 6.2 µM.

And the GI50 (OVCAR-3 ovarian)?
The GI50 was 0.722 µM.

What about the TGI (OVCAR-3 ovarian) of the same compound?
The TGI was 8.2 µM.

What about the GI50 (OVCAR-4 ovarian) of the same compound?
Its GI50 is 0.583 µM.

What about the TGI (OVCAR-4 ovarian) of the same compound?
Its TGI is over 100 µM.

And the GI50 (OVCAR-5 ovarian)?
Its GI50 is 2.65 µM.

And the TGI (OVCAR-5 ovarian)?
Its TGI is over 100 µM.

What about the GI50 (OVCAR-8 ovarian) of the same compound?
Its GI50 is 1.74 µM.

And the TGI (OVCAR-8 ovarian)?
The TGI was over 100 µM.

What about the GI50 (PC-3 prostate) of the same compound?
The GI50 was 0.568 µM.

What about the TGI (PC-3 prostate) of the same compound?
The TGI was over 100 µM.

What about the GI50 (RPMI-8226 leukemia) of the same compound?
Its GI50 is 0.376 µM.

What about the TGI (RPMI-8226 leukemia) of the same compound?
The TGI was 1.59 µM.

And the GI50 (RXF 393 renal)?
The GI50 was 0.558 µM.

What about the TGI (RXF 393 renal) of the same compound?
The TGI was 2.17 µM.

And the GI50 (SF-268 CNS)?
Its GI50 is 1.61 µM.

What about the TGI (SF-268 CNS) of the same compound?
Its TGI is over 100 µM.

What about the GI50 (SF-295 CNS) of the same compound?
Its GI50 is 0.524 µM.

What about the TGI (SF-295 CNS) of the same compound?
Its TGI is 1.92 µM.

And the GI50 (SF-539 CNS)?
Its GI50 is 1.18 µM.

And the TGI (SF-539 CNS)?
Its TGI is 5.43 µM.

What about the GI50 (SK-MEL-2 melanoma) of the same compound?
Its GI50 is 0.771 µM.

What about the TGI (SK-MEL-2 melanoma) of the same compound?
The TGI was 3.83 µM.

And the GI50 (SK-MEL-28 melanoma)?
The GI50 was 1.03 µM.

What about the TGI (SK-MEL-28 melanoma) of the same compound?
Its TGI is 3.58 µM.

What about the GI50 (SK-MEL-5 melanoma) of the same compound?
Its GI50 is 0.446 µM.

And the TGI (SK-MEL-5 melanoma)?
The TGI was 1.66 µM.

And the GI50 (SK-OV-3 ovarian)?
Its GI50 is 1.45 µM.

What about the TGI (SK-OV-3 ovarian) of the same compound?
The TGI was 5.6 µM.

And the GI50 (SN12C renal)?
The GI50 was 0.752 µM.

What about the TGI (SN12C renal) of the same compound?
The TGI was 5.62 µM.

What about the GI50 (SNB-19 CNS) of the same compound?
Its GI50 is 1.19 µM.

And the TGI (SNB-19 CNS)?
Its TGI is 25.7 µM.

What about the GI50 (SNB-75 CNS) of the same compound?
The GI50 was 1.04 µM.

And the TGI (SNB-75 CNS)?
The TGI was 3.83 µM.

What about the GI50 (SR leukemia) of the same compound?
Its GI50 is 0.32 µM.

And the TGI (SR leukemia)?
Its TGI is 2.1 µM.

What about the GI50 (SW-620 colon) of the same compound?
Its GI50 is 1.63 µM.

What about the TGI (SW-620 colon) of the same compound?
The TGI was 85.7 µM.

What about the GI50 (T-47D breast) of the same compound?
The GI50 was 0.571 µM.

And the TGI (T-47D breast)?
The TGI was 6.15 µM.

And the GI50 (TK-10 renal)?
The GI50 was 2.21 µM.

What about the TGI (TK-10 renal) of the same compound?
The TGI was 13.3 µM.

What about the GI50 (U251 CNS) of the same compound?
The GI50 was 0.909 µM.

And the TGI (U251 CNS)?
The TGI was over 100 µM.

What about the GI50 (UACC-257 melanoma) of the same compound?
Its GI50 is 0.95 µM.

And the TGI (UACC-257 melanoma)?
The TGI was 4.84 µM.

And the GI50 (UACC-62 melanoma)?
The GI50 was 0.569 µM.

And the TGI (UACC-62 melanoma)?
The TGI was 2.21 µM.

And the GI50 (UO-31 renal)?
The GI50 was 0.708 µM.

And the TGI (UO-31 renal)?
The TGI was 2.8 µM.
